AC50, EC50 and IC50 data for ten compounds are collected here from ChEMBL document CHEMBL1201862, “PubChem BioAssay data set” (2004).

Assay [1] has as its target T1, Replicative DNA helicase DnaB (Mycobacterium tuberculosis, UniProt P9WMR3).
T1 sequence (P9WMR3 whole entry): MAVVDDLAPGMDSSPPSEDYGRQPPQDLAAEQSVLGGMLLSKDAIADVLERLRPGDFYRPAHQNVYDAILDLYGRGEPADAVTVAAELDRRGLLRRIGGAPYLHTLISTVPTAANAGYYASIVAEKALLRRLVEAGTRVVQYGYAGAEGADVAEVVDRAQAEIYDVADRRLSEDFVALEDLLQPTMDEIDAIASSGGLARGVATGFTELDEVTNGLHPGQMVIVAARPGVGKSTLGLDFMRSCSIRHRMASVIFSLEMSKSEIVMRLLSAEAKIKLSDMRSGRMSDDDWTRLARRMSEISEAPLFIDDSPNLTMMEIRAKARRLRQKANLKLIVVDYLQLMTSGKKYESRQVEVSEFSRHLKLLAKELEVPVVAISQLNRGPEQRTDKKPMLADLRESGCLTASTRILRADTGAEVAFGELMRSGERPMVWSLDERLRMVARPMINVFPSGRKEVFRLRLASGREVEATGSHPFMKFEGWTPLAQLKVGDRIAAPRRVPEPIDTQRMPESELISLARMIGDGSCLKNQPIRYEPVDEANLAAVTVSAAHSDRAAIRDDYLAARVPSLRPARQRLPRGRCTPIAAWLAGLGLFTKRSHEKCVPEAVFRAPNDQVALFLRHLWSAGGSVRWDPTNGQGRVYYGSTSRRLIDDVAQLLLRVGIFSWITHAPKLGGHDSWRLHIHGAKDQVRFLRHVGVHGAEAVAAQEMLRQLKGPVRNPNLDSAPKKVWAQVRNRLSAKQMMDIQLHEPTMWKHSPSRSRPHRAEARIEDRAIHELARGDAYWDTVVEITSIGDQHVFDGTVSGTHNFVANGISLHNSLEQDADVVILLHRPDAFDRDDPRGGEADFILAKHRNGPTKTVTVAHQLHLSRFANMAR
The experiment in a line: DnaB intein splicing inhibitors, dose response, biochemical, cell-free fluorescence (AID 449749). It is filed as functional.

A short description of assay [2]: Luminescence Cell-Based Dose Retest to Confirm Inhibitors of Cancer Stem Cells. [Related pubchem assays (depositor defined):AID2717, AID2721]. The note with it: Homo sapiens. It is filed as functional.
Assay [3] concerns the target T2, Protein RecA (Mycobacterium tuberculosis, UniProt P9WHJ3).
T2 sequence (P9WHJ3 whole entry): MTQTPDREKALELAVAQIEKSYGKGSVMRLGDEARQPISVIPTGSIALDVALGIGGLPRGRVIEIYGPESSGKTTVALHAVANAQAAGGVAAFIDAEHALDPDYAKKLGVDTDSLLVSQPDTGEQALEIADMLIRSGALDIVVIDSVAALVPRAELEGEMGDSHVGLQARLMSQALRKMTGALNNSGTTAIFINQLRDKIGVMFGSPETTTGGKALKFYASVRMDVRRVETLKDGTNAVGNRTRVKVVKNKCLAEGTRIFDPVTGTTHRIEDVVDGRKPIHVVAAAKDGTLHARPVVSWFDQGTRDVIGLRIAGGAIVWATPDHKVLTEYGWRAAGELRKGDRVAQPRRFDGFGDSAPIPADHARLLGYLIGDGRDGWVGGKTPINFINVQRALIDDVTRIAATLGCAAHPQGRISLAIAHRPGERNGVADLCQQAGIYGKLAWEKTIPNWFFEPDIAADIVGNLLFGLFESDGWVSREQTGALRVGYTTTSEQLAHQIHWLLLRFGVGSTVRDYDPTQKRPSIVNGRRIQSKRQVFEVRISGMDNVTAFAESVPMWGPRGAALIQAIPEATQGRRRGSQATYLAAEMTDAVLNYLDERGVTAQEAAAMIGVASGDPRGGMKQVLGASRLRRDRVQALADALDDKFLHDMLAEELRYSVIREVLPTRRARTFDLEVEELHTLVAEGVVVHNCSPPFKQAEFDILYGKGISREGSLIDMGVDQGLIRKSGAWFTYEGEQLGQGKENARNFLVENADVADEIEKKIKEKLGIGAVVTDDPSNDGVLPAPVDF
The experiment in a line: Fluorescence Cell-Free Homogeneous Dose Retest to Identify Inhibitors of RecA-Intein Splicing Activity. [Related pubchem assays (depositor defined):AID2097, AID2223, AID489010, AID492950]. The format is functional.

Assay [4] in a line: inhibitors of HIV Env-driven cell fusion, dose response, cherry-pick (AID 652057). It is filed as functional, cell-based.
Assay [5] is described as follows: off-target signal loss in HeLa-CEM21 co-culture – HeLa F-luc CTL cells, cherry-picked, counter-screen for HIV-1 Env fusion inhibitor project, dose response (AID 652040).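 Further: potency for signal decrease marking cytotoxic or nonspecific inhibition.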 The format is functional, cell-based.
A short description of assay [6]: CEM21 lymphoblast cell cytotoxicity, dose response, cytotoxicity control for viral fusion inhibitor project, CellTiter-Glo luminescence, cherry-picked (AID 652042).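 Further: potency for signal decrease meaning cytotoxicity.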 It is filed as functional, cell-based.
Assay [7] is described as follows: inhibitors of clade B AD8 Env fusion, dose response, cell-based, cherry-pick (AID 652062).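 Further: luciferase signal from cell-cell fusion driven by HIV-1 clade B AD8 Env; potency is for inhibitors of fusion seen as a drop in luminescence.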 It is filed as functional.
The target in assay [8] is Adenosylmethionine-8-amino-7-oxononanoate aminotransferase (Mycobacterium tuberculosis, UniProt P9WQ81). Put plainly: Mycobacterium tuberculosis BioA enzyme inhibitor Measured in Biochemical System Using Plate Reader - 2163-02_Inhibitor_Dose_CherryPick_Activity. It is filed as functional, Mycobacterium tuberculosis UT205.
Sequence of Adenosylmethionine-8-amino-7-oxononanoate aminotransferase (P9WQ81 whole entry): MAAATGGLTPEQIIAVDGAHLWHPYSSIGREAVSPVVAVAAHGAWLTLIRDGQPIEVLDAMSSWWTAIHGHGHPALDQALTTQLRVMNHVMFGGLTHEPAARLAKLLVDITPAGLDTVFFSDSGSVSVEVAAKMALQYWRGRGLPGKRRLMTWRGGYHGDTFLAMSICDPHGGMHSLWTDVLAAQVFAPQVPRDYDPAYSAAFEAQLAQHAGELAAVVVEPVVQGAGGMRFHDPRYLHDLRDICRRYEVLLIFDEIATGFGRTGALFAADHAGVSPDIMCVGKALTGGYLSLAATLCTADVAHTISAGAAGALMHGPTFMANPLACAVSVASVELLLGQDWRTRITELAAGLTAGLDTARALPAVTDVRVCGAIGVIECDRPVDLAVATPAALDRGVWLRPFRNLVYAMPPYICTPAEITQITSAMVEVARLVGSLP
The target of assay [9] is T3, Corticotropin-releasing factor receptor 2/Corticotropin-releasing factor-binding protein (Homo sapiens, UniProt P24387+Q13324).
T3 sequence (Q13324 whole entry): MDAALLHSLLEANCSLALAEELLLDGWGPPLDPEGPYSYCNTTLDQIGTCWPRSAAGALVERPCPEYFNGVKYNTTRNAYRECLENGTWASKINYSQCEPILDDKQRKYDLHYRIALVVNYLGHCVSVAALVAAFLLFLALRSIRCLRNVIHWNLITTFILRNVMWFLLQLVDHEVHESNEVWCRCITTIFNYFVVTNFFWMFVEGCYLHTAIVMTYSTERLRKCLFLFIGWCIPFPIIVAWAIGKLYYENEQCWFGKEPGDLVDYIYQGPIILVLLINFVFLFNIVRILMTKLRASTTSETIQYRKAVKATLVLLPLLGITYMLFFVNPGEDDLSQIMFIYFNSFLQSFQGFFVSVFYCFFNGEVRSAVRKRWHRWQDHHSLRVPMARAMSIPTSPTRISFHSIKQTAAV
T3 sequence (P24387 whole entry): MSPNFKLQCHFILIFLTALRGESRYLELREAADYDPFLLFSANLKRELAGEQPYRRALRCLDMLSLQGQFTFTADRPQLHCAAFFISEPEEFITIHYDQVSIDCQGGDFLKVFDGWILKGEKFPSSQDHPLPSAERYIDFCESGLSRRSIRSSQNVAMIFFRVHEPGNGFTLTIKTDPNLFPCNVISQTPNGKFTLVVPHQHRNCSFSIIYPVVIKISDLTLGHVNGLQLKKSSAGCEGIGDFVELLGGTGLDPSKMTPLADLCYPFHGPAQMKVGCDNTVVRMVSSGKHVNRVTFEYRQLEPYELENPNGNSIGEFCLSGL
Put plainly: Dose Response confirmation of uHTS hits for small molecule antagonists of the CRF-binding protein and CRF-R2 receptor complex. It is filed as functional. The note with it: read-out: IC50_Mean.

The target in assay [10] is T3, Corticotropin-releasing factor receptor 2/Corticotropin-releasing factor-binding protein. Put plainly: activators of CRF receptor 2 with binding protein – uHTS hits, confirmation (AID 602473). It is filed as functional. The note with it: read-out: EC50_Mean.
Assay [11] can be described thus: CRF-BP/CRF-R2 complex antagonists, dose response, cell-based, uHTS hits, 384-well (AID 651639). The format is functional, Homo sapiens. The note with it: read-out: IC50_Mean.
Assay [12] in a line: human group III sPLA2 inhibitors, dose response, biochemical, QFRET, IC50 (AID 743457).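 Further: green fluorescence rise as the enzyme cleaves BODIPY PC-A2 in liposomes; potency for inhibition of the enzyme.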
Assay [13] addresses T4, Nuclear receptor subfamily 0 group B member 1 (Homo sapiens, UniProt P51843).
T4 sequence (P51843 whole entry): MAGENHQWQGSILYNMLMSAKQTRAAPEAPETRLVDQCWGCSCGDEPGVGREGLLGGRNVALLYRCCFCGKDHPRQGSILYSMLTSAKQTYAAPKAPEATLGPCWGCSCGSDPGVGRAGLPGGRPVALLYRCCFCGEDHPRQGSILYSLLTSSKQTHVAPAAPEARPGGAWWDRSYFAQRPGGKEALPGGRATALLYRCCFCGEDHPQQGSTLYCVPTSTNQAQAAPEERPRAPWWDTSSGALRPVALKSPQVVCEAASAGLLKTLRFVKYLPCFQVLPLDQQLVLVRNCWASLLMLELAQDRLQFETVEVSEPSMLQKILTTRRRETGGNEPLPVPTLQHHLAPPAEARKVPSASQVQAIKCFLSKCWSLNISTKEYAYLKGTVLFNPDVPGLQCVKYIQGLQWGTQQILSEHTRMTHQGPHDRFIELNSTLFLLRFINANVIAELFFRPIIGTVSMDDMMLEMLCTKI
The format is functional, cell-based.

A short description of assay [14]: cells. The format is functional, cell-based.
Assay [15] can be described thus: ZM109 Env clade C HIV-1 fusion inhibitors, dose response, HeLa effector, CEM target cells, luciferase, cherry-pick (AID 652058). It is filed as functional, cell-based.
Assay [16] in a line: cytotoxicity in OVCAR8 ovarian cancer cells, dose response, PAX8 project, cell-based, plate reader, dry powder samples (AID 743197). The note with it: OVCAR-8. It is filed as functional.
The target of assay [17] is Paired box protein Pax-8 (Homo sapiens, UniProt Q06710). Put plainly: inhibitors of PAX8-driven TPO luciferase reporter, dose response, RMG-I cells, cherry-pick (AID 687027).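 Further: luciferase reporter driven by Pax8 target thyroperoxidase promoter measured by SteadyGlo luminescence.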 It is filed as functional, cell-based.
Sequence of Paired box protein Pax-8 (Q06710 whole entry): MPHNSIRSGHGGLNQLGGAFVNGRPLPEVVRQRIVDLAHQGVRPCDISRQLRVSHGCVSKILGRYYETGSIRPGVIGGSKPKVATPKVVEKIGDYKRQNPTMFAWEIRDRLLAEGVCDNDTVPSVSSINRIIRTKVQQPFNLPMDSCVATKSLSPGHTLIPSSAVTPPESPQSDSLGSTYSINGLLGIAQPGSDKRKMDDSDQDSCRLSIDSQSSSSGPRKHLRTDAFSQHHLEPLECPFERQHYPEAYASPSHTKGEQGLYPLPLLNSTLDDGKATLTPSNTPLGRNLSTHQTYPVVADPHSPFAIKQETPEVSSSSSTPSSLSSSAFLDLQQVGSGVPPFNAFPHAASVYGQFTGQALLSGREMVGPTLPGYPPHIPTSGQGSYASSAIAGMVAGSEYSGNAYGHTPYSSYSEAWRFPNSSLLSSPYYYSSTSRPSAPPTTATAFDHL
Assay [18] in a line: NIH:OVCAR-3 ovarian cancer cell cytotoxicity, dose response, PAX8 inhibitor project, plate reader, dry powder samples (AID 743044). The format is functional, cell-based.
Assay [19] is described as follows: IGROV1 ovarian cancer cell cytotoxicity, dose response, PAX8 inhibitor project, plate reader, dry powder samples (AID 743043). The format is functional, cell-based. The note with it: IGROV-1.
Assay [20] can be described thus: A2780 ovarian cancer cell cytotoxicity, dose response, cytotoxicity control, plate reader, dry powder samples (AID 743046). The format is functional, cell-based.
Assay [21] in a line: NIH/3T3 fibroblast cytotoxicity, dose response, cytotoxicity control for T. cruzi growth inhibitor project, cell-based, cherry-pick samples, set 2 (AID 651817). It is filed as functional. The note with it: NIH3T3.
The nature of assay [22]: T. cruzi intracellular amastigote growth inhibition, dose response, imaging, CA-I/72 strain, bovine embryo skeletal muscle, dry powder (AID 651885). It is filed as functional, cell-based.
The nature of assay [23]: T. cruzi growth inhibition in host cells, dose response, cell-based, plate reader, dry powder, set 2 (AID 652275). It is filed as functional.

Calls of active or inactive are those of the source.

For the compound `COc1ccccc1/C=C/C1(C(=O)NC2CCCC2)CC(=O)N1c1ccc(F)cc1` (centres undefined), the AC50 was 3.57 µM (active) in [1]; 6.36 µM (active) in assay [2]; 3.35 µM (active) in [4]; 5.48 µM (active) in [5]; 12.7 µM (active) in assay [6]; 25.2 µM (active) in [7]. In addition, the EC50 in [3] was 2.82 µM (active).

Take `CCCOC(=O)c1cccc(NC(=O)c2cccnc2)c1`: the AC50 in [8] was 6.09 µM (active).

With `CC1(C)CC(=O)C(C2C3=C(CC(C)(C)CC3=O)Oc3ccc4ccccc4c32)C(=O)C1` (centres undefined), the IC50 in assay [9] is 14.8 µM (active); in assay [11] it was > 20 µM (inactive). Moreover, the EC50 in assay [10] is 31.8 µM (active).

Regarding `Cc1ccc(C)c(NC(S)=NNC(=O)c2csc(C)c2C)c1`, the IC50 in assay [12] was > 122 µM (inactive).

In the case of `COc1ccc(C(=O)Nc2nnc(SCC(=O)NC3CCCC3)s2)c(OC)c1`, the IC50 in [13] was > 0.0926 µM (active); in [14], > 67.5 µM (inactive).

In the case of `COc1ccc(C(=O)C2CCCN(C(=O)c3ccc(C(C)=O)s3)C2)c(C)c1` (centres undefined), the AC50 in [8] is 1.7 µM (active).

`C[C@@H]1CN([C@@H](C)CO)C(=O)Cc2cc(NS(=O)(=O)c3ccc(F)cc3)ccc2O[C@H]1CN(C)Cc1ccc(Cl)c(Cl)c1`: the AC50 was 1.33 µM (active) in assay [15]; 49.4 µM (active) in [16]; 3.12 µM (active) in [17]; 27.8 µM (active) in assay [18]; 12.6 µM (active) in assay [19]; 15.4 µM (active) in [4]. Besides, the AC50 in assay [20] was 45.6 µM (active); in assay [7] it was 1.52 µM (active); in assay [21], 7.33 µM (active).

In the case of `CC(C)N1C[C@H](C)[C@@H](CN(C)CC2CCOCC2)Oc2c(NC(=O)c3ccncc3)cccc2C1=O`, the IC50 in assay [22] is 5.83 µM (inconclusive).

In the case of `CC(C)N1C[C@@H](CN(C)Cc2ccc(Cl)cc2)Oc2c(NC(=O)c3ncn[nH]3)cccc2C1=O`, the AC50 in assay [23] was 5.99 µM (active).

As for `Cc1cccc(NC(=O)c2cccc([N+](=O)[O-])c2O)c1C`, the IC50 in assay [9] was 5.93 µM (active); in assay [11], > 20 µM (inactive). The EC50 in [10] was > 53 µM (inactive).
